The results in this text go back to patent publication US20230091047A1 (priority 2019, published 2023).

SMILES strings stand for the structures. Like-named read-outs stand apart in the source and are kept apart here. Some results are limits rather than exact numbers.

One data set can be described thus: in vitro. Format: cell-based. The note with it: human, HepG2 or HepG2.117 cells, mean value. The protocol: Cytotoxicity of the compounds was tested using HepG2 or HepG2.117 cells, incubated for 3 or 4 days in the presence of compounds. The viability of the cells was assessed using the PERKIN ELMER ATPlite Luminescence Assay System.”
Data set [1] relates to HBV (HepG2.117 cell line, inducibly HBV producing). In words: Anti-HBV activity: intracellular HBV DNA by real-time PCR in HepG2.117 cells after 3 days of treatment. The class given is cell-based, hepatitis B virus. The method, then: The anti HBV activity was measured using the HepG2.117 cell line, a stable, inducibly HBV producing cell line, which replicates HBV in the absence of doxycycline (Tet-off system). The HepG2 cell line is available from ATCCR under number HB-8065. Transfection of the HepG2 cell line can be as described in Sun and Nassal 2006 Journal of Hepatology 45 (2006) 636-645 “Stable HepG2- and Huh7-based human hepatoma cell lines for efficient regulated expression of infectious hepatitis B virus”.
For the antiviral assay, HBV replication was induced, followed by a treatment with serially diluted compound in 96-well plates. After 3 days of treatment, the antiviral activity was determined by quantification of intracellular HBV DNA using real-time PCR and an HBV specific primer set and probe.
In general terms: In qPCR the cycle at which signal appears reflects the starting amount.

Where [2] appears, read: ATPlite, 3-days incubation (not marked with *).
Setting [3] is: Hepatitis B virus, HepG2.117, 72 h, HepG2.117 cells, intracellular HBV DNA by real-time PCR, 3 days of treatment, mean value; read-out: EC50 (μM, mean value).
[4] abbreviates: 3-days incubation (unmarked values), ATPlite.
Where [5] appears, read: Hepatitis B virus, HepG2.117, 72 h, HepG2.117 cells, 3 days of treatment, intracellular HBV DNA by real-time PCR; mean value; read-out: EC50 (μM, mean value).

Turning to `CNC(=O)c1ccc(-n2c(NC3CCOC3)nc3c(c2=O)C[C@@H](C)N(C(=O)c2ccc(Cl)c(Cl)c2)C3)cc1` (some centres unmarked) [Compound C559], the CC50 at 3 days in the data set “in vitro” (setting [2]) was > 50 µM. Besides, the EC50 in data set [1] (setting [3]) was 0.6 µM.
On the same counts, the results for `CNC(=O)c1ccc(-n2c(NC(C)C)nc3c(c2=O)C[C@@H](C)N(C(=O)c2cc4ccc(Br)c(F)c4[nH]2)C3)cc1` [Compound C568] are 25.8 µM and 0.02 µM.
For `CC(C)Nc1nc2c(c(=O)n1-c1ccc(-n3cncn3)cc1)C[C@@H](C)N(C(=O)c1ccc(Cl)c(Cl)c1)C2` [Compound C611], in the data set “in vitro” (setting [2]), the CC50 at 3 days was > 50 µM. The EC50 in data set [1] (setting [3]) amounted to 0.17 µM.
On the same counts, the results for `CNC(=O)c1ccc(-n2c(NC(C)C)nc3c(c2=O)C[C@@H](C)N(C(=O)c2ccc4c(c2)[nH]c(=O)n4C)C3)cc1` [Compound C510] are > 50 µM and 9.42 µM.
On to `CC(C)Nc1nc2c(c(=O)n1-c1ccc(S(C)(=O)=O)cc1)CCN(C(=O)c1ccc(C(F)(F)F)nc1)C2` [Compound C367], for which the CC50 at 3 days in “in vitro” (setting [4]) was > 50 µM. Also, in data set [1] (setting [5]), the EC50 was > 10 µM.
`CC[C@@H](C)Oc1nc2c(c(=O)n1-c1ccc(C(=O)NC)cc1)C[C@@H](C)N(C(=O)c1ccc(Cl)c(Cl)c1)C2` [Compound C397, 4-(R-2-(R-sec-butoxy)-7-(3,4-dichlorobenzoyl)-6-methyl-4-oxo-5,6,7,8-tetrahydropyrido[3,4-d]pyrimidin-3(4H)-yl)-N-methylbenzamide] showed a cytotoxic concentration (CC50) at 3 days in the data set “in vitro” (setting [2]) of 25.2 µM. Moreover, the EC50 in data set [1] (setting [3]) came to 0.05 µM.
For `CNC(=O)c1ccc(-n2c(N[C@H](C)c3ccc(C(F)(F)F)cc3)nc3c(c2=O)C[C@@H](C)N(C(=O)c2ccc(Cl)c(Cl)c2)C3)cc1` (single isomer, unassigned) [Compound C413a] the same measures were 9 µM and 0.06 µM.
For `CNC(=O)c1ccc(-n2c(N3CCOC(C)C3)nc3c(c2=O)C[C@@H](C)N(C(=O)c2ccc(Cl)c(Cl)c2)C3)cc1` (some centres unmarked) [Compound C470], in the data set “in vitro” (setting [2]), the CC50 at 3 days was > 50 µM. In addition, in data set [1] (setting [3]), the EC50 is > 25 µM.
Take `COc1ccc(CNc2nc3c(c(=O)n2-c2ccc(-n4cccn4)cc2)CCN(C(=O)c2ccc(Cl)c(Cl)c2)C3)cc1` [Compound C143, 7-(3,4-dichlorobenzoyl)-2-{[(4-methoxyphenyl)methyl]amino}-3-[4-(1H-pyrazol-1-yl)phenyl]-5,6,7,8-tetrahydropyrido[3,4-d]pyrimidin-4(3H)-one]: in “in vitro” (setting [4]), the CC50 at 3 days is > 50 µM. Moreover, the EC50 in data set [1] (setting [5]) was determined as 1.46 µM.
Take `CNC(=O)c1ccc(-n2c(NC(C)C)nc3c(c2=O)C[C@@H](C)N(C(=O)c2ccc(Cl)c(Cl)c2)C3)cc1` [Compound C157, 4-[(6R)-7-(3,4-dichlorobenzoyl)-6-methyl-4-oxo-2-[(propan-2-yl)amino]-5,6,7,8-tetrahydropyrido[3,4-d]pyrimidin-3(4H)-yl]-N-methylbenzamide]: in “in vitro” (setting [4]), the CC50 at 3 days was > 50 µM. The concentration giving a half-maximal response (EC50) in data set [1] (setting [5]) came out at 0.04 µM.
On to `Cc1c(C(=O)N2CCc3c(nc(NC(C)C)n(-c4ccc(S(C)(=O)=O)cc4)c3=O)C2)[nH]c2ccccc12` [Compound C147, 3-[4-(methanesulfonyl)phenyl]-7-(3-methyl-1H-indole-2-carbonyl)-2-[(propan-2-yl)amino]-5,6,7,8-tetrahydropyrido[3,4-d]pyrimidin-4(3H)-one], for which the CC50 at 3 days in “in vitro” (setting [4]) is > 50 µM. The EC50 in data set [1] (setting [5]) is 1.88 µM.
On the same counts, the results for `CNC(=O)c1ccc(-n2c(N[C@H](C)CO)nc3c(c2=O)C[C@@H](C)N(C(=O)c2ccc(Cl)c(Cl)c2)C3)cc1` [Compound C330, 4-[(6R)-7-(3,4-dichlorobenzoyl)-2-{[(2R)-1-hydroxypropan-2-yl]amino}-6-methyl-4-oxo-5,6,7,8-tetrahydropyrido[3,4-d]pyrimidin-3(4H)-yl]-N-methylbenzamide] are > 50 µM and 0.9 µM.
For `CC(C)Nc1nc2c(c(=O)n1-c1ccc(C(=O)NCCN)cc1)C[C@@H](C)N(C(=O)c1ccc(Cl)c(Cl)c1)C2` [Compound C197, N-(2-aminoethyl)-4-[(6R)-7-(3,4-dichlorobenzoyl)-6-methyl-4-oxo-2-[(propan-2-yl)amino]-5,6,7,8-tetrahydropyrido[3,4-d]pyrimidin-3(4H)-yl]benzamide], in the data set “in vitro” (setting [4]), the CC50 at 3 days is > 50 µM. The EC50 in data set [1] (setting [5]) amounted to 1.81 µM.
On the same counts, the results for `CC(C)Nc1nc2c(c(=O)n1-c1ccc(S(C)(=O)=O)cc1)CCN(C(=O)c1ccc3ocnc3c1)C2` [Compound C364] are > 50 µM and > 7.2 µM.
In the case of `CNC(=O)c1cc(-n2c(NC(C)C)nc3c(c2=O)C[C@@H](C)N(C(=O)c2cccc(C(F)(F)F)c2)C3)n(C)n1` [Compound C646], the CC50 at 3 days in “in vitro” (setting [2]) is > 50 µM. Moreover, the EC50 in data set [1] (setting [3]) stood at 1.62 µM.
For the compound `CNC(=O)c1ccc(-n2c(NCc3ncnn3C)nc3c(c2=O)C[C@@H](C)N(C(=O)c2ccc(Cl)c(Cl)c2)C3)cc1` [Compound C561], the CC50 at 3 days in “in vitro” (setting [2]) was > 50 µM. Besides, the EC50 in data set [1] (setting [3]) was > 25 µM.
Consider `CNC(=O)c1ccc(-n2c(NCc3nncn3-c3ccccc3)nc3c(c2=O)C[C@@H](C)N(C(=O)c2ccc(Cl)c(Cl)c2)C3)cc1` [Compound C542], for which the CC50 at 3 days in the data set “in vitro” (setting [2]) is > 50 µM. For the same compound, the concentration for a half-maximal effect (EC50) in data set [1] (setting [3]) was 12.9 µM.
On the same counts, the results for `CNC(=O)c1ccc(-n2c(NCc3nnn(C)c3C(F)F)nc3c(c2=O)C[C@@H](C)N(C(=O)c2ccc(Cl)c(Cl)c2)C3)cc1` [Compound C552] are > 50 µM and > 25 µM.
As to `COc1ccccc1-n1c(NC2COC2)nc2c(c1=O)CCN(C(=O)c1ccc(Cl)c(Cl)c1)C2` [Compound C48, 7-(3,4-dichlorobenzoyl)-3-(2-methoxyphenyl)-2-[(oxetan-3-yl)amino]-5,6,7,8-tetrahydropyrido[3,4-d]pyrimidin-4(3H)-one], the CC50 at 3 days in “in vitro” (setting [4]) is > 50 µM. Further, in data set [1] (setting [5]), the EC50 turned out to be 30.1 µM.
`CNC(=O)c1ccc(-n2c(NC(C)C)nc3c(c2=O)C[C@@H](C)N(C(=O)c2cc4sc(Br)cc4[nH]2)C3)cc1` [Compound C591] yielded a cytotoxic concentration (CC50) at 3 days in the data set “in vitro” (setting [2]) of 23.2 µM. The EC50 in data set [1] (setting [3]) turned out to be 0.01 µM.
Turning to `CC(C)Nc1nc2c(c(=O)n1-c1ccc(C(=O)N3CCOCC3)cc1)C[C@@H](C)N(C(=O)c1ccc(Cl)c(C(F)(F)F)c1)C2` [Compound C649], the cytotoxic concentration (CC50) at 3 days in “in vitro” (setting [2]) was > 50 µM.
On to `CC(C)Nc1nc2c(c(=O)n1-c1ccc(C(=O)NC3CC3)cc1)C[C@@H](C)N(C(=O)c1ccc(Cl)c(C(F)(F)F)c1)C2` [Compound C654], for which the half-maximal cytotoxic concentration (CC50) at 3 days in “in vitro” (setting [2]) was > 50 µM. Besides, in data set [1] (setting [3]), the EC50 was determined as 0.03 µM.
For `CC(C)Nc1nc2c(c(=O)n1-c1ccc(-c3ncc(F)cc3F)cc1)CCN(C(=O)c1ccc(Cl)c(Cl)c1)C2` [Compound C171, 7-(3,4-dichlorobenzoyl)-3-[4-(3,5-difluoropyridin-2-yl)phenyl]-2-[(propan-2-yl)amino]-5,6,7,8-tetrahydropyrido[3,4-d]pyrimidin-4(3H)-one], in “in vitro” (setting [4]), half-maximal cytotoxicity (CC50 at 3 days) was put at 4.6 µM. For the same compound, the EC50 in data set [1] (setting [5]) was found to be 3.95 µM.
Consider `CC(C)Nc1nc2c(c(=O)n1-c1ccc(S(C)(=O)=O)cc1)CCN(C(=O)c1cc3ncccc3[nH]1)C2` [Compound C368], for which the CC50 at 3 days in the data set “in vitro” (setting [4]) is > 50 µM.
As for `CNC(=O)c1ccc(-n2c(N[C@@H](C)c3ccc(C(F)(F)F)c(F)c3)nc3c(c2=O)C[C@@H](C)N(C(=O)c2ccc(Cl)c(Cl)c2)C3)cc1` (single isomer, unassigned) [Compound C659b], in data set [1] (setting [3]), the 50% effective concentration (EC50) was > 2.5 µM.
As to `COc1ccc(CNc2nc3c(c(=O)n2-c2ccc(S(C)(=O)=O)cc2)C[C@H](c2ccc(F)cc2)N(C(=O)c2ccc(Cl)c(Cl)c2)C3)cc1` (single isomer, unassigned) [Compound C109B, (6*R)-7-(3,4-dichlorobenzoyl)-6-(4-fluorophenyl)-3-[4-(methanesulfonyl)phenyl]-2-{[(4-methoxyphenyl)methyl]amino}-5,6,7,8-tetrahydropyrido[3,4-d]pyrimidin-4(3H)-one], the CC50 at 3 days in “in vitro” (setting [4]) was > 50 µM.
As to `CNC(=O)c1ncc(-n2c(NC)nc3c(c2=O)C[C@@H](C)N(C(=O)c2ccc(Cl)c(C(F)(F)F)c2)C3)n1C` [Compound C702], the CC50 at 3 days in the data set “in vitro” (3-days incubation (unmarked values), ATPlite viability) was > 50 µM.
Take `CC(C)Nc1nc2c(c(=O)n1-c1ccc(S(C)(=O)=O)cc1)CCN(C(=O)c1cc3cnccc3[nH]1)C2` [Compound C369]: in the data set “in vitro” (setting [4]), the CC50 at 3 days is > 50 µM.
As for `CNC(=O)c1ccc(-n2c(NCc3cnn(-c4ccccc4)n3)nc3c(c2=O)C[C@@H](C)N(C(=O)c2ccc(Cl)c(Cl)c2)C3)cc1` [Compound C464], the EC50 in data set [1] (setting [3]) is 0.62 µM.
With `CC(C)Nc1nc2c(c(=O)n1-c1ccc(S(C)(=O)=O)cc1)CCN(C(=O)c1cc3cc(Cl)ccc3[nH]1)C2` [Compound C357], the CC50 at 3 days in the data set “in vitro” (setting [4]) was > 50 µM.
As to `CNC(=O)c1ccc(-n2c(N[C@@H](C)c3ccc(C(F)(F)F)cc3)nc3c(c2=O)C[C@@H](C)N(C(=O)c2ccc(Cl)c(C(F)(F)F)c2)C3)cc1` [Compound C650], in data set [1] (setting [3]), the concentration for a half-maximal effect (EC50) was determined as 0.05 µM.

What is called CC50 is the concentration at which the toxic effect on the cells reaches its halfway point. Higher therefore signals lower toxicity to the cells. What is called EC50 is the midpoint of the concentration-response curve.
